Patent US8697692B2, “Pyrrolo [3,2-c] pyridine-4-one 2-indolinone protein kinase inhibitors” (Shanghai Hengrui Pharmaceutical Co., Ltd., priority 2006, dated 2014)
Like-named read-outs stand apart in the source and are kept apart here.

How the values were obtained:
EGFR kinase = biological target: T1, EGFR kinase (Homo sapiens, UniProt P00533); experiment: EGFR Kinase Assay; type: biochemical; details: 20 μM ATP, 25° C. 45 minutes
T1 construct: purchased Cell signaling technology #7908
Protocol: EGFR kinase activity in vitro was measured as described below:
a. Wash Buffer (PBS-T Buffer): 1×PBS (137 mM NaCl, 2.7 mM KCl, 4.3 mM Na2HPO4, 1.4 mM KH2PO4, adjust the pH to 7.2) and 0.05% Tween-20.
(§1) b. 1% Bovine Serum Albumin (BSA, Calbiochem #136593) in PBS-T.
c. Stop Buffer: 50 mM EDTA, pH 8.0
d. DELFIA® Europium-labeled Anti-mouse IgG (PerkinElmer Life Sciences #AD0124)
e. DELFIA® Enhancement Solution (PerkinElmer Life Sciences #1244-105)
f. DELFIA® Streptavidin coated, 96-well, yellow plate (PerkinElmer Life Sciences #AAAND-0005)
g. EGFR kinase (supplied in 50 mM Tris-HCl (pH 8.0), 100 mM NaCl, 5 mM DTT, 15 mM reduced glutathione and 20% glycerol. Cell signaling technology #7908).
(§2) h. 10 mM ATP solution (Cell signaling technology #9804).
i. PTP1B (Tyr66) Biotinylated Peptide (Cell signaling technology #1325).
(§3) j. Phospho-Tyrosine Mouse mAb (P-Tyr-100) (Cell signaling technology #9411).
(§4) k. HTScan™ Tyrosine Kinase Buffer (4×)
(§5) (Cell signaling technology #9805).
(§6) l. 1.25 M DTT (1000×) (Cell signaling technology).
(§7) The following protocol was used:
1. Dilute test compound with DMSO to the desired final assay concentration.
2. Dilute 6 μM substrate peptide (Tyr66) 1:1 with dH2O, add 15 μl to every assay.
3. Immediately transfer EGFR enzyme from −80° C. to ice. Allow enzyme to thaw on ice.
4. Take 3 μg EGFR enzyme to the enzyme tube.
(§8) 5. Add 10 μl of DTT (1.25 M) to 2.5 ml of 4×HTScan™ Tyrosine Kinase Buffer (240 mM HEPES pH 7.5, 20 mM MgCl2, 20 mM MnCl2, 12 μM Na3VO4) to make DTT/Kinase buffer.
(§9) 6. Transfer 0.75 ml of DTT/Kinase buffer to each enzyme tube to make 4× reaction cocktail. Add 7.5 μl 4× reaction cocktail to every assay.
7. Add 4 μl ATP (10 mM) to 496 μl dH2O, take 7.5 μl for every assay.
Final Assay Conditions for a 30 μl Reaction
(§10) Incubate reaction tube at 25° C. for 45 minutes. 9. Add 30 μl/assay stop buffer (50 mM EDTA, pH 8.0) to stop the reaction. 10. Transfer 25 μl of each reaction and 75 μl dH2O/well to a 96-well streptavidin coated plate and incubate, with shaking at room temperature for 60 minutes. 11. Wash three times with 200 μl/well PBS-T buffer. Pat plate on paper towel to remove excess liquid. 12. Dilute primary antibody, Phospho-Tyrosine mAb (P-Tyr-100), 1:1000 in PBS-T buffer with 1% BSA. Add 100 μl diluted primary antibody to each well. 13. Incubate, with shaking at room temperature for 60 minutes. 14. Wash as described above in step 11. 15. Dilute Europium labeled anti-mouse IgG 1:500 in PBS-T buffer with 1% BSA. Add 100 μl diluted antibody to each well. 16. Incubate, with shaking at room temperature for 30 minutes. 17. Wash five times with 200 μl/well PBS-T buffer. Pat plate on paper towel to remove excess liquid. 18. Add 100 μl/well DELFIA® Enhancement Solution. 19. Incubate, with shaking at room temperature for 5 minutes. 20. Detect 615 nm fluorescence emission with appropriate Time-Resolved Plate Reader.
(§11) Calculate the inhibition rate: IR (%)=100−100*(X−B)/(N−B)
(§12) X=the fluorescence value of the well contained test compound
(§13) The IC50 value can be derived from the IRs of compounds at different concentration gradients.

A431 cell = experiment: Cell Proliferation Inhibition EGFR Assay (SRB method); type: cell-based, homo sapient; details: Homo sapiens, read-out: IC50 (A431)
Procedure, shortened: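 A431 cells grown to ~85% confluence, then exposed 72 hours at 37° C to 6 to 7 serial concentrations of compound in DMEM/F12 + 10% FBS, final DMSO ≤0.5%. Growth measured by TCA fixation and sulforhodamine B staining; IC50 calculated from inhibition rates.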

HUVEC cell = experiment: Cell Proliferation Inhibition VEGF-R2 Assay (SRB method); type: cell-based, homo sapient; details: Homo sapiens; HUVEC cells, 72 hours exposure, Sulforhodamine B; read-out: IC50 (VEGFR/HUVEC)
Description: The following in vitro assay may be used to determine the level of activity and effect of different compounds of the present invention on the proliferation inhibition (cell toxic) of endothelium growth factor receptor (VEGFR) high expressing homo […] cancer cell-HUVEC cell. The cellular assay described here measure the compounds of their anti-angiogenesis and proliferation inhibition activity and effect through […] on the cancer cells in vitro. The effect and activity is represented by the IC50 value that kills the cancer cell. […] The homo […] highly express […] are chosen and seeded to 96-well cell culture plate at a suitable concentration (exp 5000 cells/ml medium). The cells then are cultured in carbon dioxide (CO2) incubator till when they confluence to about 85%. Then, the cell culture medium is replaced by fresh one with tested compounds added in it at serial concentrations (general 6 to 7 concentrations). Then the cells are put back to the culture and cultured for continuous 72 hours. 72 hours later, the cell exposed to compounds and control cell are assayed for their proliferation using Sulforhodamine B (SRB) method. […] Dimethyl sulfoxide (Sinophma chemical reagent company, catalog No. T20050806) • b. HUVEC cells (Purchased from Institute of biochemistry and cell biology) • c. […] Acetic Acid (Sinophma chemical reagent company, Catalog No. T20060508) • l. Trichloroacetic Acid (Sinophma chemical reagent company, Catalog No. T20060305) • m. […] Class II A/B3 Biological safety cabinet (ThermoForma Catalog No. HB0053-03) • o. […] Centrifuge (Fisher Scientific Marathon 8 k, Catalog No. 0027-02) • q. Novastar Plate reader (BMG Labtech, Catalog No. 700-0081) • r. […] Growing seeded 96-well plates at 37° C., 5% CO2, till 85% confluence. • 4. Prepare compounds stock solution, using DMSO solve candidate compounds to a concentration of 20 mM. […] Use cell culture medium (in this case, DMEM/F12+10% FBS) to dilute the compounds solution prepared above. Each DMSO serial concentration compound solution is diluted by 20 times with culture medium by adding 5 μl DMSO compound solution to 95 μl culture medium, then mix well by vortex. […] After HUVEC cell has attached to the dish bottom and confluence about 85%, change the culture medium with fresh DMEM/F12 plus 10% FBS. Each well added 180 μl medium, then add 20 μl medium solution of tested compounds prepared at step 5 to each well. For control group cell, add 20 μl culture medium containing 0.5% pure DMSO. […] Each 96-well plate, we can test 3 compounds with a control cell group. • 7. Put the culture plates back to incubator, culture for 72 hours at 37° C., 5% CO2. • 8. 72 hours later, remove cultures from incubator into sterile work area. • 9. Prepare fixative (50% Trichloroacetic Acid-TCA) by adding reagent grade water to the TCA, fix the cells by gently layering 50 μl of cold TCA solution on top of the growth medium. • 10. Incubate plates for 1 hour at 4° C. and then rinse with water several times to remove TCA, serum proteins, etc. Plates are air dried and stored until use. Bland background optical density is measured in wells incubated with growth medium without cells. • 11. Use 10% acetic acid solution to prepare 0.4% Sulforhodamine B solution. Add 50 μl sulforhodamine B solution to each well of 96-well plates. • 12. Allow cells to stain for 30 minutes. • 13. Prepared the wash solution of […] acetic acid. At the end of the staining period, the stain is removed and the cells rinsed quickly with 1% acetic acid. Repeat until unincorporated dye is removed. Keep wash times to a minimum to reduce desorption of protein-bound dye. After being rinsed, the cultures are air dried until no moisture is visible. • 14. The incorporated dye is then solubilized in a volume of Sulforhodamine B assay Solubilization solution (10 mM Tris) equal to the original volume of culture medium. Allow cultures to stand for 5 minutes at room temperature.

HER-2/ErbB2 kinase = biological target: T2, HER-2/ErbB2 kinase (Homo sapiens, UniProt P04626); experiment: HER-2 Kinase Assay (ELISA); type: biochemical; details: 20 μM ATP, 25° C. 60 minutes
T2 construct: purchased Invitrogen corporation #PV3366
T2 sequence (P04626 23-1255): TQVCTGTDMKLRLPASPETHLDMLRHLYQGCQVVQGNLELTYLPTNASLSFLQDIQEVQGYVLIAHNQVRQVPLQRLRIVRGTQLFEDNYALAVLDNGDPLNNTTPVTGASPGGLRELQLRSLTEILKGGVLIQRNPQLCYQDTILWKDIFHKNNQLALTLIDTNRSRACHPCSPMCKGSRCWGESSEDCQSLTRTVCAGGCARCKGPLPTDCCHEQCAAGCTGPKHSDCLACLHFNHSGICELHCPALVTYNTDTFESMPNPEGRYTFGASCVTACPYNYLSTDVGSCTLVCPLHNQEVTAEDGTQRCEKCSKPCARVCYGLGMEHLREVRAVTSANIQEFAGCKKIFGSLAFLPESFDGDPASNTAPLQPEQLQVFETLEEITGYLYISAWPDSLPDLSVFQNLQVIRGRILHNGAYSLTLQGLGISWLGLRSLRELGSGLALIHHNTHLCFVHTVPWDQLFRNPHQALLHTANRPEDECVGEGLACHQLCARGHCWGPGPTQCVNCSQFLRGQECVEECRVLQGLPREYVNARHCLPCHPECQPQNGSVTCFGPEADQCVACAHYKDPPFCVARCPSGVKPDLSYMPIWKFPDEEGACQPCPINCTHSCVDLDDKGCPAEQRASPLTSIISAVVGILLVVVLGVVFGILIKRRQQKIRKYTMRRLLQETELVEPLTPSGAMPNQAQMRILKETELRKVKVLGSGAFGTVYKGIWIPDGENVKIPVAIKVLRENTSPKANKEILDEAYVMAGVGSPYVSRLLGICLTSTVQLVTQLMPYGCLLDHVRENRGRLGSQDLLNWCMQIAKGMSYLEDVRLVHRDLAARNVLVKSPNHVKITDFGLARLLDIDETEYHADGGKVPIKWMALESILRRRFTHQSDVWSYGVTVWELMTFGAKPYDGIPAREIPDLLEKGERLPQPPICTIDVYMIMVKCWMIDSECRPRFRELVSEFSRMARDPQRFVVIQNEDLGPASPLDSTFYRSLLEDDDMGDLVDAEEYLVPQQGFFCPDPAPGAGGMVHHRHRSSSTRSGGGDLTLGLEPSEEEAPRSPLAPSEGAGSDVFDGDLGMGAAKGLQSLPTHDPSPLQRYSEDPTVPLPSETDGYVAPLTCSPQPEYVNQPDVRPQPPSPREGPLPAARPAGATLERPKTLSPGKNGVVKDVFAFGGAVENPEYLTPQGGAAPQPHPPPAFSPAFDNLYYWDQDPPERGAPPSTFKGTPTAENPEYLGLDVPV
Protocol: An enzyme linked immunosorbent assays (ELISA) was conducted to measure the kinase activity of HER-2 in vitro.
a. Wash Buffer (PBS-T Buffer): 1×PBS (137 mM NaCl; 2.7 mM KCl, 4.3 mM Na2HPO4, 1.4 mM KH2PO4, adjust the pH to 7.2) and 0.05% Tween-20.
as §1
c. Stop Buffer: 50 mM EDTA, pH 8.0.
d. DELFIA® Europium-labeled Anti-mouse IgG (PerkinElmer Life Sciences #AD0124).
e. DELFIA® Enhancement Solution (PerkinElmer Life Sciences #1244-105).
f. DELFIA® Streptavidin coated, 96-well, yellow plate (PerkinElmer Life Sciences #AAAND-0005).
g. HER-2/ErbB2 kinase (Invitrogen corporation #PV3366).
as §2
i. FLT3 (Tyr589) Biotinylated Peptide (Cell signaling technology #1305).
as §3, §4, §5, §6, §7
1. Dilute test compound with DMSO to the desired final assay concentration. Add 1 μl test compound for every assay, to the negative control.
2. Dilute 6 μM substrate peptide (Tyr589) 1:1 with dH2O, add 15 μl to every assay.
3. Immediately transfer HER-2 enzyme from −80° C. to ice. Allow enzyme to thaw on ice.
4. Take 4.5 μg HER-2 enzyme to the enzyme tube.
as §8, §9
7. Add 4 μl ATP (10 mM) to 496 μl dH2O, take 7.5 μl for every assay. Final Assay Conditions for a 30 μl Reaction
as §10, with “60” for “45”
as §11, §12, §13

[1] = A-431, A431 cells, 72 hours exposure, Sulforhodamine B

T1 sequence (P00533 25-1210): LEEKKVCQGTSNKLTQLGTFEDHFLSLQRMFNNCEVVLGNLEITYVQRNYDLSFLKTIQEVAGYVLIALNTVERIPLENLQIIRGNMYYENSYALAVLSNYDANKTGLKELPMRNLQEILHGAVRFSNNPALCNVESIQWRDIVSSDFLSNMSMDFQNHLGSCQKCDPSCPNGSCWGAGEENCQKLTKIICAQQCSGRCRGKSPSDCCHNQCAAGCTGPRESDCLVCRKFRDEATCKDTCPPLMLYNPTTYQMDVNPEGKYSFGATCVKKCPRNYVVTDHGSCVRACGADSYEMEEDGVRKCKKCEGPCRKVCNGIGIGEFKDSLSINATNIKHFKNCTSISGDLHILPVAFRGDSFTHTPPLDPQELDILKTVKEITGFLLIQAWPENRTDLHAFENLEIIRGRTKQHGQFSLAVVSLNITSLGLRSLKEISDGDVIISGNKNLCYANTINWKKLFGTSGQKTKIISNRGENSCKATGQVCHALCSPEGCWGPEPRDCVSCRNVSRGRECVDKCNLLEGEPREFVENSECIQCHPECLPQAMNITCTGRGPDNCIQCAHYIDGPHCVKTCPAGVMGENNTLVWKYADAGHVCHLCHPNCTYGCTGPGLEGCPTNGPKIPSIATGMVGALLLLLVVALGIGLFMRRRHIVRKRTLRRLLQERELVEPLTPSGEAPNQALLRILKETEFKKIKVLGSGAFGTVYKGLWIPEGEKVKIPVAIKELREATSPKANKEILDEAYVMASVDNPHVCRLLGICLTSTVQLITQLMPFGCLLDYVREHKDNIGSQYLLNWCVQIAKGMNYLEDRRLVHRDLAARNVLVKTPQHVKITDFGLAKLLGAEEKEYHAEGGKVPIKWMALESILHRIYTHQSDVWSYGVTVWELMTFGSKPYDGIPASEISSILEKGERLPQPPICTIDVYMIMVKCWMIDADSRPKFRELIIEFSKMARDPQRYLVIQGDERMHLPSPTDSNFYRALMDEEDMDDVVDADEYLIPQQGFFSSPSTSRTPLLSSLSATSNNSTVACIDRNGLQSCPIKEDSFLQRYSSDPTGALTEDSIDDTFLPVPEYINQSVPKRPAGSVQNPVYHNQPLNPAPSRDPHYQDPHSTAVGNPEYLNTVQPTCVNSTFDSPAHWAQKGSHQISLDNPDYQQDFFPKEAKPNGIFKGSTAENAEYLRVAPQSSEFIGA

IC50 (A431 cell; [1]) | IC50 (HER-2/ErbB2 kinase) | SMILES | IC50 (EGFR kinase) | IC50 (A431 cell; A-431, 72 h) | IC50 (HUVEC cell)
– | 36100 nM | Cc1c(/C=C2\C(=O)Nc3cccc(Br)c32)[nH]c2c1C(=O)N(CCN1CCOCC1)CC2 [Example 49, 2-(4-Bromo-2-oxo-1,2-dihydro-indol-3-ylidenemethyl)-3-methyl-5-(2-morpholin-4-yl-ethyl)-1,5,6,7-tetrahydro-pyrrolo[3,2-c]pyridin-4-one] | – | – | –
180 nM | 680 nM | Cc1c(/C=C2\C(=O)Nc3cccc(-c4cccc(F)c4)c32)[nH]c2c1C(=O)N(CCN1CCCCC1)CC2 [Example 64, 2-[4-(3-Fluoro-phenyl)-2-oxo-1,2-dihydro-indol-3-ylidenemethyl]-3-methyl-5-(2-piperidin-1-yl-ethyl)-1,5,6,7-tetrahydro-pyrrolo[3,2-c]pyridin-4-one] | – | – | –

Continued, compound first:

SMILES | IC50 (A431 cell; [1]) | IC50 (HER-2/ErbB2 kinase) | IC50 (EGFR kinase) | IC50 (A431 cell; A-431, 72 h) | IC50 (HUVEC cell)
CCN(CC)CCN1CCc2[nH]c(/C=C3\C(=O)Nc4ccc(F)cc43)c(C)c2C1=O [Example 1, 5-(2-Diethylamino-ethyl)-2-(5-fluoro-2-oxo-1,2-dihydro-indol-3-ylidenemethyl)-3-methyl-1,5,6,7-tetrahydro-pyrrolo[3,2-c]pyridin-4-one] | – | – | 280 nM | 1090 nM | –
CCN(CC)CCN1CCc2[nH]c(/C=C3\C(=O)Nc4ccc(Cl)cc43)c(C)c2C1=O [Example 2, 2-(5-Chloro-2-oxo-1,2-dihydro-indol-3-ylidenemethyl)-5-(2-diethylamino-ethyl)-3-methyl-1,5,6,7-tetrahydro-pyrrolo[3,2-c]pyridin-4-one] | – | – | 290 nM | 1040 nM | –
CCN(CC)CCN1CCc2[nH]c(/C=C3\C(=O)Nc4ccc(Br)cc43)c(C)c2C1=O [Example 3, 2-(5-Bromo-2-oxo-1,2-dihydro-indol-3-ylidenemethyl)-5-(2-diethylamino-ethyl)-3-methyl-1,5,6,7-tetrahydro-pyrrolo[3,2-c]pyridin-4-one] | – | – | 490 nM | 1260 nM | –
Cc1c(/C=C2\C(=O)Nc3ccc(F)cc32)[nH]c2c1C(=O)N(CCN1CCCC1)CC2 [Example 13, 2-(5-Fluoro-2-oxo-1,2-dihydro-indol-3-ylidenemethyl)-3-methyl-5-(2-pyrrolidin-1-yl-ethyl)-1,5,6,7-tetrahydro-pyrrolo[3,2-c]pyridin-4-one] | 1310 nM | – | 190 nM | – | –
O=C1Nc2ccc(Br)cc2/C1=C/c1[nH]c2c(c1-c1ccccc1)C(=O)NCC2 [Example 41, 2-(5-Bromo-2-oxo-1,2-dihydro-indol-3-ylidenemethyl)-3-phenyl-1,5,6,7-tetrahydro-pyrrolo[3,2-c]pyridin-4-one] | – | – | 6010 nM | – | 220 nM
